Test results: US8012711B2, “Methods of screening for compounds that reduce microbial resistance to fluoroquinolones” (priority 1999, dated 2011)
Converted amounts (≈) assume the structure as drawn. Like-named read-outs stand apart in the source and are kept apart here.

Legend:
[1] = test system: Escherichia coli AG100, AG112 and derived fluoroquinolone-resistant mutants with ΔacrAB; assay: MIC by broth microdilution, AcrAB-deleted strains; assay type: cell-based; conditions: Escherichia coli
Experimental: (§1) Susceptibility testing. MICs of selected antimicrobial agents were determined by a standard broth microdilution procedure with cation-adjusted Mueller-Hinton broth (Becton Dickinson, Cockeysville, Md.) and an inoculum of 5×10^5 CFU/ml according to NCCLS performance and interpretive guidelines (NCCLS. 1997. Methods for dilution antimicrobial susceptibility. Tests for bacteria that grow aerobically—Fourth Edition; Approved Standard. NCCLS document M7-A4 (ISBN 1-56238-309-4). NCCLS, 940 West Valley Road, Suite 1400, Wayne, Pa. 19087). Antimicrobial agents on the commercially available microtiter plates (Merlin Diagnostics GmbH, Bornheim, Germany) included the FQs ciprofloxacin (CIP), enoxacin, fleroxacin, nor-flo-xacin, ofloxacin (OFL), pefloxacin, sparfloxacin (SPX), and trovafloxacin (TVA). They also included tetracycline (TET), chloramphenicol (CML), trimethoprim (TMP), cefoxitin (CFOX), cefaclor, cefixim and loracarbef. MICs of bile salts were determined by a broth macrodilution procedure: sodium cholate and sodium deoxycholate were serially diluted twofold in LB broth and tubes inoculated at 5×10^5 CFU/ml. MICs of both antibiotics and bile salts were determined twice in independent experiments with reproducible results.
P1 transduction. […] DNA sequencing.

[2] = test system: Escherichia coli K-12 AG100, its Mar mutant AG112 and derived fluoroquinolone-resistant mutants (acrAB+); assay: MIC by broth microdilution, acrAB+ strains; assay type: cell-based; conditions: Escherichia coli
Experimental: Selection of fluoroquinolone-resistant mutants. 1-AG100, 2°-AG100, 3*-AG100, 4*-AG100 and 1′-AG112, 2′-AG112, 3′-AG112 were sequential step mutants derived from AG 100 and AG112, respectively, on solid media. For each step, about 10^11 cells of an overnight culture were plated on several LB agar plates supplemented with increasing concentrations of OFL. Single colonies were further purified on OFL-supplemented agar plates. Mutant 2°-AG100 came out of one series, while mutants 3*- and 4*-AG100 came from a second series.
as §1

E. coli = conditions: cited from earlier work
[3] = strain 1-AG112 (1′-AG112), ΔacrAB
[4] = strain 2-AG100 (2°-AG100), ΔacrAB
[5] = strain 2-AG112 (2′-AG112), ΔacrAB
[6] = strain 3-AG112 (3′-AG112), ΔacrAB
[7] = strain 1-AG100, acrAB+, read-out: MIC
[8] = strain 1-AG112 (1′-AG112), acrAB+, read-out: MIC
[9] = strain 2-AG100 (2°-AG100), acrAB+, read-out: MIC
[10] = strain 2-AG112 (2′-AG112), acrAB+, read-out: MIC
[11] = strain 3*-AG100, acrAB+, read-out: MIC
[12] = strain 3-AG112 (3′-AG112), acrAB+, read-out: MIC
[13] = strain 4*-AG100, acrAB+, read-out: MIC
[14] = strain AG100, acrAB+, read-out: MIC
[15] = strain AG112 (Mar mutant), acrAB+

`C[C@@H]1CN(c2c(F)c(N)c3c(=O)c(C(=O)O)cn(C4CC4)c3c2F)C[C@H](C)N1` [SPX, sparfloxacin] showed an MIC ([1]; all ΔacrAB mutants, below detection) of under 0.015 µg/mL, an MIC ([1]; strain 1-AG100, ΔacrAB) of at most 0.015 µg/mL and an MIC [1, 3] of at most 0.015 µg/mL. For the same compound, the MIC [1, 4] was at most 0.015 µg/mL, the MIC [1, 5] was at most 0.015 µg/mL and the MIC ([1]; strain 3*-AG100, ΔacrAB) was at most 0.015 µg/mL. The MIC [1, 6] was at most 0.015 µg/mL, the MIC ([1]; strain 4*-AG100, ΔacrAB) was at most 0.015 µg/mL and the MIC ([1]; strain AG100, ΔacrAB) was at most 0.015 µg/mL. For the same compound, the MIC ([1]; strain AG112, ΔacrAB) was at most 0.015 µg/mL, the MIC [2, 7] was 0.125 µg/mL (≈ 0.319 µM) and the MIC [2, 8] was 0.25 µg/mL (≈ 0.637 µM). For the same compound, the MIC [2, 9] was 0.25 µg/mL (≈ 0.637 µM), the MIC [2, 10] was 1 µg/mL (≈ 2.55 µM) and the MIC [2, 11] was 0.5 µg/mL (≈ 1.27 µM). For the same compound, the MIC [2, 12] was 2 µg/mL (≈ 5.1 µM), the MIC [2, 13] was 2 µg/mL (≈ 5.1 µM) and the MIC [2, 14] was at most 0.015 µg/mL. It also gave an MIC [2, 15] of 0.06 µg/mL (≈ 0.153 µM).

With `CN(C)[C@@H]1C(O)=C(C(N)=O)C(=O)[C@@]2(O)C(O)=C3C(=O)c4c(O)cccc4[C@@](C)(O)[C@H]3C[C@@H]12` [TET, tetracycline] the MIC ([1]; strain 1-AG100, ΔacrAB) was 1 µg/mL (≈ 2.25 µM), the MIC [1, 3] was 0.5 µg/mL (≈ 1.13 µM) and the MIC [1, 4] was 0.5 µg/mL (≈ 1.13 µM). For the same compound, the MIC [1, 5] was 1 µg/mL (≈ 2.25 µM), the MIC ([1]; strain 3*-AG100, ΔacrAB) was 1 µg/mL (≈ 2.25 µM) and the MIC [1, 6] was 0.5 µg/mL (≈ 1.13 µM). The MIC ([1]; strain 4*-AG100, ΔacrAB) was 1 µg/mL (≈ 2.25 µM), the MIC ([1]; strain AG100, ΔacrAB) was 0.5 µg/mL (≈ 1.13 µM) and the MIC ([1]; strain AG112, ΔacrAB) was 1 µg/mL (≈ 2.25 µM). For the same compound, the MIC [2, 7] was 2 µg/mL (≈ 4.5 µM), the MIC [2, 8] was 4 µg/mL (≈ 9 µM) and the MIC [2, 9] was 2 µg/mL (≈ 4.5 µM). For the same compound, the MIC [2, 10] was 16 µg/mL (≈ 36 µM), the MIC [2, 11] was 8 µg/mL (≈ 18 µM) and the MIC [2, 12] was 8 µg/mL (≈ 18 µM). The MIC [2, 13] was 8 µg/mL (≈ 18 µM), the MIC [2, 14] was 1 µg/mL (≈ 2.25 µM) and the MIC [2, 15] was 4 µg/mL (≈ 9 µM).

For `N[C@@H]1[C@H]2CN(c3nc4c(cc3F)c(=O)c(C(=O)O)cn4-c3ccc(F)cc3F)C[C@@H]12` [TVA, trovafloxacin], the MIC ([1]; strain 1-AG100, ΔacrAB) was 0.06 µg/mL (≈ 0.144 µM), the MIC [1, 3] was 0.06 µg/mL (≈ 0.144 µM) and the MIC [1, 4] was 0.06 µg/mL (≈ 0.144 µM). For the same compound, the MIC [1, 5] was 0.06 µg/mL (≈ 0.144 µM), the MIC ([1]; strain 3*-AG100, ΔacrAB) was 0.06 µg/mL (≈ 0.144 µM) and the MIC [1, 6] was 0.06 µg/mL (≈ 0.144 µM). For the same compound, the MIC ([1]; strain 4*-AG100, ΔacrAB) was 0.125 µg/mL (≈ 0.3 µM), the MIC ([1]; strain AG100, ΔacrAB) was at most 0.03 µg/mL and the MIC ([1]; strain AG112, ΔacrAB) was at most 0.03 µg/mL. It also gave an MIC [2, 7] of 0.25 µg/mL (≈ 0.6 µM), an MIC [2, 8] of 0.5 µg/mL (≈ 1.2 µM) and an MIC ([2]; strain 2-AG100 (2°-AG100), acrAB+) of 0.25 µg/mL (≈ 0.6 µM). The MIC [2, 10] was 1 µg/mL (≈ 2.4 µM), the MIC [2, 11] was 0.5 µg/mL (≈ 1.2 µM) and the MIC [2, 12] was 2 µg/mL (≈ 4.8 µM). The MIC [2, 13] was 2 µg/mL (≈ 4.8 µM), the MIC [2, 14] was 0.06 µg/mL (≈ 0.144 µM) and the MIC [2, 15] was 0.125 µg/mL (≈ 0.3 µM).

In the case of `Oc1cc(Cl)ccc1Oc1ccc(Cl)cc1Cl` [triclosan], the “Reduction of resistance to triclosan” value (E. coli; deletion of acrAB, all strains) is given as 10 fold, the “Increase of resistance to triclosan” value (E. coli; mutation in enoyl reductase (fabI)) is given as “about 100 fold” and the “Increase of resistance to triclosan” value (E. coli; overexpression of acrAB, marA, or soxS) is given as “about two-fold”.
